Reference: ChEMBL document CHEMBL4431331, “Design and evaluation of 1,7-naphthyridones as novel KDM5 inhibitors” (Bioorg Med Chem Lett, 2016)
Values belong to the molecule of their own block, whether it stands above or below them. Activity calls are given as the source filed them. The calls are words filed in the database; no cut-off is given here.

Columns and labels:
[1] = target: T1, Lysine-specific demethylase 5A (Homo sapiens, UniProt P29375); assay: Inhibition of full length human KDM5A using biotinylated H2NART(KMe3)QTARKSTGGKAPRKQLA-NTPEG-biotin as substrate after 30 to 40 mins using 1 uM of 2-OG as co-substrate by TR-FRET assay
[2] = target: T1, Lysine-specific demethylase 5A; assay: Inhibition of full length human KDM5A using biotinylated H2NART(KMe3)QTARKSTGGKAPRKQLA-NTPEG-biotin as substrate after 30 to 40 mins using 20 uM of 2-OG as co-substrate by TR-FRET assay
[3] = Hepatic clearance in human liver microsomes; type: ADME, Microsome
[4] = Dissociation constant, pKa of the compound; type: physicochemical
[5] = target: T1, Lysine-specific demethylase 5A; assay: Inhibition of KDM5A in human PC9 cells assessed as increase in H3K4me3 levels upto 30 uM after 4 days by HTRF assay; type: cell-based
[6] = Apparent permeability from apical to basolateral side in MDCK cells; type: ADME, cell-based, Canis lupus familiaris; conditions: dog
[7] = Plasma protein binding in human; type: ADME, cell-free; conditions: read-out: PPB (converted)
[8] = Competitive inhibition of KDM5 (unknown origin) in presence of 2-OG; parameters: species or system Homo sapiens
Homo sapiens [9] = species on record: Homo sapiens; assay: Selectivity ratio of IC50 for full length human KDM4C to IC50 for full length human KDM5A
[10] = target: T2, Lysine-specific demethylase 4C (Homo sapiens, UniProt Q9H3R0); assay: Inhibition of full length human KDM4C using biotinylated H2N-ARTKQTAR(KMe3)STGGKAPRKQLA-NTPEGBiot as substrate after 30 mins using 3 uM of 2-OG as co-substrate by TR-FRET assay
T2 sequence (Q9H3R0 whole entry): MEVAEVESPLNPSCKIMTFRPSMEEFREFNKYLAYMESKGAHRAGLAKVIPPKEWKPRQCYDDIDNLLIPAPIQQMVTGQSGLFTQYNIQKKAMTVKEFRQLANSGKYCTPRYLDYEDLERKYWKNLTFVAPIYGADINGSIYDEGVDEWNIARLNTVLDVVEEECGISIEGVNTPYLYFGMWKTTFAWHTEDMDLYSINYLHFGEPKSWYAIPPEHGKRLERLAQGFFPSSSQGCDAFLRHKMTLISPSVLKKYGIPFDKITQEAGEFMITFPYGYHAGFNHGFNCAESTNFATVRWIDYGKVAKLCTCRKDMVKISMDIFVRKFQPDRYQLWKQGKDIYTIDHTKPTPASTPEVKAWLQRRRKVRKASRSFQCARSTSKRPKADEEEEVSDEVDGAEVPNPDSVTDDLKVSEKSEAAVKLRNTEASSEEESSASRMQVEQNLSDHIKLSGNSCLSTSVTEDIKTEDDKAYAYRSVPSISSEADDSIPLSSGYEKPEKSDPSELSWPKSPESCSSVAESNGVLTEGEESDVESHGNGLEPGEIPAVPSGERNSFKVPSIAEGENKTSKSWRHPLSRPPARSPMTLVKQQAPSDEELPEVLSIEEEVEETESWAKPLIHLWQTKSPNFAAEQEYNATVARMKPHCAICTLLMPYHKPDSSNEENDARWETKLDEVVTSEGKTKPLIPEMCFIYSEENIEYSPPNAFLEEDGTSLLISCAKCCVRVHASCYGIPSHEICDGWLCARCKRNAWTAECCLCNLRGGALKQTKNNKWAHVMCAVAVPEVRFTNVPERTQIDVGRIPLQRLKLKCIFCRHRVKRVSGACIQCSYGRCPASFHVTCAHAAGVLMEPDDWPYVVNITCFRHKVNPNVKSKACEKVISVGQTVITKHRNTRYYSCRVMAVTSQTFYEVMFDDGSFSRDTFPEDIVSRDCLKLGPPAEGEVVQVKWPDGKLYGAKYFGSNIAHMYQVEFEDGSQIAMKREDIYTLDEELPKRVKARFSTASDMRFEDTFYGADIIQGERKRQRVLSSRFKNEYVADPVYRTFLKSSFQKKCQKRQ

[11] = target: T1, Lysine-specific demethylase 5A; assay: Ratio of IC50 for full length human KDM5A using biotinylated H2NART(KMe3)QTARKSTGGKAPRKQLA-NTPEG-biotin as substrate and 10 uM of 2-OG as co-substrate to IC50 for full length human KDM5A using biotinylated H2NART(KMe3)QTARKSTGGKAPRKQLA-NTPEG-biotin as substrate and 1 uM of 2-OG as co-substrate
Homo sapiens [12] = species on record: Homo sapiens; assay: Selectivity ratio of IC50 for full length human KDM2B to IC50 for full length human KDM5A
[13] = target: T3, Lysine-specific demethylase 2B (Homo sapiens, UniProt Q8NHM5); assay: Inhibition of full length human KDM2B using biotinylated H2N-RKSAPATGGV(KMe2)KPHRYRPGTV-NTPEGBiot as substrate after 2 hrs using 0.3 uM of 2-OG as co-substrate by TR-FRET assay
T3 sequence (Q8NHM5 whole entry): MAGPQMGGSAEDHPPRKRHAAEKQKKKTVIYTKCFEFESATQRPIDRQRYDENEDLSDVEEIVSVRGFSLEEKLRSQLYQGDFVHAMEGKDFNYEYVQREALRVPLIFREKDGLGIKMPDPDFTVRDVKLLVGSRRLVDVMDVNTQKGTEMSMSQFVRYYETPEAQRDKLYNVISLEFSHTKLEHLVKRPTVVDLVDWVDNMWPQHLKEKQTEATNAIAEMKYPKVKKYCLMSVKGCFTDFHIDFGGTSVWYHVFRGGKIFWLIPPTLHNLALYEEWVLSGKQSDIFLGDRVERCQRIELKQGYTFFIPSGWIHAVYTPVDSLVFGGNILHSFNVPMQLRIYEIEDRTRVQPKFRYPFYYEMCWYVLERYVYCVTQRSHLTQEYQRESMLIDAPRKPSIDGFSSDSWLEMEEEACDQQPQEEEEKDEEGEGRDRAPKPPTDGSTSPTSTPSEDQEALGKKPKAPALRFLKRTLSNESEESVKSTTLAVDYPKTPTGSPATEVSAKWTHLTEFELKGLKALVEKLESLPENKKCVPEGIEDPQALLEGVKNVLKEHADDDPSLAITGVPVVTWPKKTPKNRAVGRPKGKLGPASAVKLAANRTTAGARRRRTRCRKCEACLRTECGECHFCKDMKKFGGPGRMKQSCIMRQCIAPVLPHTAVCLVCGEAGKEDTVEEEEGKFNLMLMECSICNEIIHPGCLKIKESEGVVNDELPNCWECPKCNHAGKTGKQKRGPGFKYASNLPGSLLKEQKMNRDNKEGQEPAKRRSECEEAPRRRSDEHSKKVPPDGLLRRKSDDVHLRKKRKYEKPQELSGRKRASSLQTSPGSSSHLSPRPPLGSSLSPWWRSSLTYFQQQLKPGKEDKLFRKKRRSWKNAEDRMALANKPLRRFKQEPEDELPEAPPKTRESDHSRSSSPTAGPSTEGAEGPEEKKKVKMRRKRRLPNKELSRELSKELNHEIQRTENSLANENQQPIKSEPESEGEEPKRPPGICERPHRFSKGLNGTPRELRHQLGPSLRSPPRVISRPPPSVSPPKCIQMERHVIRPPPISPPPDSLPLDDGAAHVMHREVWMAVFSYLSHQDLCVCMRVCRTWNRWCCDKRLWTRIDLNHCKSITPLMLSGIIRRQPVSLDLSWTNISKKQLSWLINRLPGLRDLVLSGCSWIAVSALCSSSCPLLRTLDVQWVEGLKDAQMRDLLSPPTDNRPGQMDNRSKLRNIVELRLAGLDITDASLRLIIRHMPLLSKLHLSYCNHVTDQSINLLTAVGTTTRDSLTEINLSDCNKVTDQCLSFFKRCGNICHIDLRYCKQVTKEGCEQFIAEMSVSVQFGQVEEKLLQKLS

[14] = target: Lysine-specific demethylase 5C (Homo sapiens, UniProt P41229); assay: Inhibition of full length human KDM5C using biotinylated H2NART(KMe3)QTARKSTGGKAPRKQLA-NTPEG-biotin as substrate after 30 to 40 mins using 1 uM of 2-OG as co-substrate by TR-FRET assay
[15] = target: Lysine-specific demethylase 5B (Homo sapiens, UniProt Q9UGL1); assay: Inhibition of full length human KDM5B using biotinylated H2NART(KMe3)QTARKSTGGKAPRKQLA-NTPEG-biotin as substrate after 30 to 40 mins using 2 uM of 2-OG as co-substrate by TR-FRET assay
Chain of Lysine-specific demethylase 5B (Q9UGL1 whole entry): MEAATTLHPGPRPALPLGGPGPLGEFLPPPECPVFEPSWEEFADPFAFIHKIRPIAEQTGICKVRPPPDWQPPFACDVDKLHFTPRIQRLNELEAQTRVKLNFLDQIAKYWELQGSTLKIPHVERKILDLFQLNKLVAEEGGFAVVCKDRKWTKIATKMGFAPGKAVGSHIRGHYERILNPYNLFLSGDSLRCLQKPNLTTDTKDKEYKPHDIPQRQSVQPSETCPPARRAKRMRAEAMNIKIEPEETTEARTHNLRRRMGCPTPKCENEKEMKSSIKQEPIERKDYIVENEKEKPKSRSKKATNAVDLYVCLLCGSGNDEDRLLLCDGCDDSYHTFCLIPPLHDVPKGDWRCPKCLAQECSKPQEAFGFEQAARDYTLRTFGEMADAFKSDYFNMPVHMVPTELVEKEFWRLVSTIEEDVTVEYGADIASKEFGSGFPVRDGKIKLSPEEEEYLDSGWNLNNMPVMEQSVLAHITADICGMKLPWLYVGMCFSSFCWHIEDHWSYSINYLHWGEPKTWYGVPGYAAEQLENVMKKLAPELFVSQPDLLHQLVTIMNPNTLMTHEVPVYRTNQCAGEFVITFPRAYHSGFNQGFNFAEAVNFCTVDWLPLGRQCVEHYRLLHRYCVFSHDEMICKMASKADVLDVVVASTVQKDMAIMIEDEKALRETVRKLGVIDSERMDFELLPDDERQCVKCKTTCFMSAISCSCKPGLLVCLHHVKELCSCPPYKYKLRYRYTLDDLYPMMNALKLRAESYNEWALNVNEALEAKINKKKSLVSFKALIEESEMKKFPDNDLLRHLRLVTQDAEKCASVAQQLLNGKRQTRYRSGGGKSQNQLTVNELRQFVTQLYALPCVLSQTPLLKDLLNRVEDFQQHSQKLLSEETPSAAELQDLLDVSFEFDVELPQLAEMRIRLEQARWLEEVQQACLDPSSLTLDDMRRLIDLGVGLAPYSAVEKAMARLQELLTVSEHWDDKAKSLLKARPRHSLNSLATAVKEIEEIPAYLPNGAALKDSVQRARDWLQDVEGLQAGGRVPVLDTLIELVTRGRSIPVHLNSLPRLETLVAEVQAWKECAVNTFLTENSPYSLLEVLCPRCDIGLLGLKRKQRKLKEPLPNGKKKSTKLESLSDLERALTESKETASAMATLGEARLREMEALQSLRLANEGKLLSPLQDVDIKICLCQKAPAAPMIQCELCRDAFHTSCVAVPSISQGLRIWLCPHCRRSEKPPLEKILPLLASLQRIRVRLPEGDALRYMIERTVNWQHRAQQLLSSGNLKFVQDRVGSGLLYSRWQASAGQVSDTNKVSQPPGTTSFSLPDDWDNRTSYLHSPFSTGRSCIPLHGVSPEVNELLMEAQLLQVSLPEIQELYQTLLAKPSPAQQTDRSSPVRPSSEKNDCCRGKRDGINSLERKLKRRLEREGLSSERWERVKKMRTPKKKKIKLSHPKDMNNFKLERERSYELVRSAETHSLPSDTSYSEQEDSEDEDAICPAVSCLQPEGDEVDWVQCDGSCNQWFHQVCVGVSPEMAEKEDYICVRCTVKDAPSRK

T1 sequence (P29375 whole entry): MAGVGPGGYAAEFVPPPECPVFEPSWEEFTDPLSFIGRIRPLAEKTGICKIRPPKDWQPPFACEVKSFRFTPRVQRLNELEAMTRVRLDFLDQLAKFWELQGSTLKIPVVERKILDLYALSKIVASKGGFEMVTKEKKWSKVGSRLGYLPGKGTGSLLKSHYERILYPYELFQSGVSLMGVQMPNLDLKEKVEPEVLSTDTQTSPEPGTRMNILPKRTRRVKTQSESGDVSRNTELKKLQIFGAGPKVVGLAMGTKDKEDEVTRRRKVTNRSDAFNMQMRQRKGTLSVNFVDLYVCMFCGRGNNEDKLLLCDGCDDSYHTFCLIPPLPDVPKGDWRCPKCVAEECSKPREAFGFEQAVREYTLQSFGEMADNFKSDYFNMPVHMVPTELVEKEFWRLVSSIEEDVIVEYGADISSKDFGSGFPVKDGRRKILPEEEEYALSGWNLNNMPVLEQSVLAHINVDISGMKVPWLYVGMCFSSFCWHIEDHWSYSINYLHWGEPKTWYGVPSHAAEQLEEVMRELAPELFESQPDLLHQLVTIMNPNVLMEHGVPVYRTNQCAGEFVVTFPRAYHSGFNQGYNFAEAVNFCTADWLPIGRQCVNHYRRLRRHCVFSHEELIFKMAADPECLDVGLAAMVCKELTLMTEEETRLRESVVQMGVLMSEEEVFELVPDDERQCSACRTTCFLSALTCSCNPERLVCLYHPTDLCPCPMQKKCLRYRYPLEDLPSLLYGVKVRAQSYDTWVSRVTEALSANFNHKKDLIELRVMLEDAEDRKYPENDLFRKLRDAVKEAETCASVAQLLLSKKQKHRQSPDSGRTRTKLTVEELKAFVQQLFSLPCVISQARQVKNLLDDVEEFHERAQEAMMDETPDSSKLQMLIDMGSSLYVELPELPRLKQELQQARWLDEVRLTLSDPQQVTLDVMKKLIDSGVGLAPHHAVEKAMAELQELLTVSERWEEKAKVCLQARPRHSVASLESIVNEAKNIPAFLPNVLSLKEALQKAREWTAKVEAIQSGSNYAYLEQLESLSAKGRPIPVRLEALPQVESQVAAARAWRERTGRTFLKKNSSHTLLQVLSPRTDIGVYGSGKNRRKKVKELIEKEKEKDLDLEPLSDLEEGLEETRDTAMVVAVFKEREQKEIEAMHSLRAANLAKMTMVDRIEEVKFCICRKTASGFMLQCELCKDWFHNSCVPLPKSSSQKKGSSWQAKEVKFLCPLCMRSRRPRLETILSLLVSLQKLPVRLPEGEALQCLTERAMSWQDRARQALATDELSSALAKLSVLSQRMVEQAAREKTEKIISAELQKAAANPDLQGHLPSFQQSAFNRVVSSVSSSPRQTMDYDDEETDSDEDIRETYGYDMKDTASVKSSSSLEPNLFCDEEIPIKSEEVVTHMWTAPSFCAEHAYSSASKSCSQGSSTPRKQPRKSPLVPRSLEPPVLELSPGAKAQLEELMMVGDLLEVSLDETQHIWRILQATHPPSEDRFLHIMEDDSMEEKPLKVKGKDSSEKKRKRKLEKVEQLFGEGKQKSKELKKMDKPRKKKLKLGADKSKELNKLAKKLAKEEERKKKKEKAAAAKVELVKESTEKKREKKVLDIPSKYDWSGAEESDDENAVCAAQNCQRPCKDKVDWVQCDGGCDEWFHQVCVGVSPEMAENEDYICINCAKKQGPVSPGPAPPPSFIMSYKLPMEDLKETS
Chain of Lysine-specific demethylase 5C (P41229 whole entry): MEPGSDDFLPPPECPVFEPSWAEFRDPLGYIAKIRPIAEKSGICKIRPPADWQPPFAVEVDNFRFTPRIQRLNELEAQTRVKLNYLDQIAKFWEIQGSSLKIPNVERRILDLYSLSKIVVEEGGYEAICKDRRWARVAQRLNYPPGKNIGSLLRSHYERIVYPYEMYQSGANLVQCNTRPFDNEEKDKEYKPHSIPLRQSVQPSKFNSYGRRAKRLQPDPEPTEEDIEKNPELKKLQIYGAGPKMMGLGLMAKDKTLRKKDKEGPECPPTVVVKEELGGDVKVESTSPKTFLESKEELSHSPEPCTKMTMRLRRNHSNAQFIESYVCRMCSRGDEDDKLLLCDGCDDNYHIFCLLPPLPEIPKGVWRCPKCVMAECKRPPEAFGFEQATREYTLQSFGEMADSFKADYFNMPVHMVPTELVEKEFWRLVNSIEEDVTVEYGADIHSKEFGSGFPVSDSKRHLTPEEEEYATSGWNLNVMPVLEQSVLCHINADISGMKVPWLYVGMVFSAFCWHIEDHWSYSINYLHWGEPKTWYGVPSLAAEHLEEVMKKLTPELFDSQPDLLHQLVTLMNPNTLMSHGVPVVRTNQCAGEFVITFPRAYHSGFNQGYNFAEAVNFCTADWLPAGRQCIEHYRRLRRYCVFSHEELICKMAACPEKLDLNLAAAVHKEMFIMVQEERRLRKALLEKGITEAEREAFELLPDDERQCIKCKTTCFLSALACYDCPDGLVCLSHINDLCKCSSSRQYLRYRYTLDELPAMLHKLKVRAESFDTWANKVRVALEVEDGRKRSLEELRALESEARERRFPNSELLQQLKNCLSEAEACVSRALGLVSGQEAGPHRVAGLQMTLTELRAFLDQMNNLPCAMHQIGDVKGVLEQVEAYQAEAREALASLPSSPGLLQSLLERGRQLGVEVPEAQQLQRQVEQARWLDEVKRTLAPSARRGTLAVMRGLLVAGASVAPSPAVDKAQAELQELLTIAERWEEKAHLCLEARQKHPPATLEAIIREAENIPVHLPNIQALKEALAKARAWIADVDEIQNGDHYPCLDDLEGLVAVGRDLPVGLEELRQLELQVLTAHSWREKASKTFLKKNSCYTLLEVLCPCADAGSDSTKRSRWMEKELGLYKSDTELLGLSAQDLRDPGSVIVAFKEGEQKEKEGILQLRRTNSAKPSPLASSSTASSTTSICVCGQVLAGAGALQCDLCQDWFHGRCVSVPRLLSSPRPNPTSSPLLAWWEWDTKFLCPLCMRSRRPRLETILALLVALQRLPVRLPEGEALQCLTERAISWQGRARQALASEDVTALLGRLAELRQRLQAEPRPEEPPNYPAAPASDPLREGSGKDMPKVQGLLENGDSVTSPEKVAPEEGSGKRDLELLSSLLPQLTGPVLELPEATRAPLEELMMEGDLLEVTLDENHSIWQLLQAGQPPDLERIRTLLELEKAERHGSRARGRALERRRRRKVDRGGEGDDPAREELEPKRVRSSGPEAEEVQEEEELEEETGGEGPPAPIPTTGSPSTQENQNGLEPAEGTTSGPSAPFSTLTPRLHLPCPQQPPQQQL

SMILES: N#Cc1c(O)c2ccccc2[nH]c1=O
IC50 [1]: > 25 µM

SMILES: CCc1c(O)c2ccncc2[nH]c1=O
IC50 [1]: 0.23 µM
IC50 [2]: 2.1 µM

SMILES: CCc1c(O)c2ccncc2n(CC)c1=O
IC50 [1]: 3.8 µM

SMILES: CCOC(=O)c1c(O)c2cccnc2[nH]c1=O
IC50 [1]: > 25 µM

CLhep predicted [3]: 11.5 mL/min/kg
pKa [4]: 6.4
inhibition [5]: inactive
Papp A→B [6]: 15.8 ×10⁻⁶ cm/s
fraction unbound [7]: 0.3
SMILES: CCNC(=O)c1c(O)c2ccncc2[nH]c1=O
IC50 [1]: 0.05 µM

SMILES: CC(C)NC(=O)c1c(O)c2ccncc2[nH]c1=O
IC50 [1]: 0.4 µM

SMILES: CNC(=O)c1c(O)c2ccncc2[nH]c1=O
IC50 [1]: 0.07 µM

SMILES: CN(C)C(=O)c1c(O)c2ccncc2[nH]c1=O
IC50 [1]: 5.3 µM

SMILES: O=C(NCc1ccccc1)c1c(O)c2ccncc2[nH]c1=O
IC50 [1]: > 25 µM

IC50 [8]: 0.01 µM
SMILES: CC(C)c1c(-c2ccccc2)[nH]c2c(C#N)cnn2c1=O

SMILES: O=C(c1c(O)c2ccncc2[nH]c1=O)N1CCCC1
IC50 [1]: > 25 µM

SMILES: CCN(C)C(=O)c1c(O)c2ccncc2[nH]c1=O
IC50 [1]: 0.7 µM

SMILES: O=c1cc(O)c2ccncc2[nH]1
IC50 [1]: 6.7 µM

Ratio IC50 (Homo sapiens [9]): 12
pKa [4]: 4.6
IC50 [10]: 1.9 µM
Ratio IC50 (Homo sapiens [12]): > 150
IC50 [13]: > 25 µM
SMILES: O=c1[nH]c(C(F)(F)F)nc2cnccc12
IC50 [1]: 0.16 µM
Ratio IC50 [11]: 9

SMILES: CCOC(=O)c1c(O)nc2ccccc2c1O
IC50 [1]: > 25 µM

pKa [4]: 3.5
IC50 [10]: > 25 µM
inhibition [5]: inactive
IC50 [13]: > 25 µM
SMILES: N#Cc1c(O)c2ccncc2[nH]c1=O
IC50 [1]: 0.025 µM
IC50 [14]: 0.17 µM
IC50 [15]: 0.07 µM
